In patent US9527885B2, “Hepatitis C virus inhibitors” (BRISTOL-MYERS SQUIBB COMPANY, priority 2011, dated 2016):
Read-outs that look alike come from different tables or passages of the source.

What was measured:
[1] = tested on: HCV genotype 1b (Con1) replicon in HUH-7 cells; assay: HCV replicon luciferase reporter assay, genotype 1b; assay type: cell-based; settings: Hepatitis C virus, 72 h, 3 days incubation, read-out: LE_1b (EC50, range)
Source text: An HCV replicon whole cell system was established as described by Lohmann V, Korner F, Koch J, Herian U, Theilmann L, Bartenschlager R., Science 285(5424):110-3 (1999) and modified to introduce a luciferase reporter, as first described by Krieger et al (Krieger N, Lohmann V, and Bartenschlager R, J. Virol. 75(10):4614-4624 (2001)). CDNA encoding a humanized form of the Renilla luciferase gene and a linker sequence fused directly to the 3′-end of the luciferase gene were introduced into the replicon construct using an Asc1 restriction site located in core, directly upstream of the neomycin marker gene. The adaptive mutation at position 1179 (serine to isoleucine) was also introduced (Blight K J, Kolykhalov, A A, Rice, C M, Science 290(5498):1972-1974). A stable cell line constitutively expressing this HCV replicon construct was generated by first linearizing plasmid DNAs with ScaI. RNA transcripts were synthesized in vitro using the T7 MegaScript transcription kit (Ambion, Austin, Tex.) according to manufacturer's directions. In vitro transcripts of the cDNA were transfected into the human hepatoma cell line, HUH-7. […] Resulting cell lines were characterized for positive and negative strand RNA production and protein production over time. […]
(§1) HCV replicon luciferase assays were developed to monitor the inhibitory effects of compounds described in the disclosure on HCV genotypes 1a and 1b viral replication. HUH-7 cells, constitutively expressing the HCV replicon, were grown in Dulbecco's Modified Eagle Media (DMEM) (Gibco-BRL) containing 10% Fetal calf serum (FCS) (Sigma) and 1 mg/mL G418 (Gibco-BRL). Compounds were serially diluted 3 folds in DMSO for a twenty-point titration and subsequently transferred to sterile 384-well tissue-culture treated plates (Corning cat #3571). The plates were then seeded with 50 μL of cells at a density of 3.0×10^3 cells/well in DMEM containing 4% FCS (final DMSO concentration at 0.5%). After 3 days incubation at 37° C., cells were analyzed for Renilla Luciferase activity using the EnduRen as substrate (Promega cat #E6485). The EnduRen substrate was diluted in DMEM and then added to the plates to a final concentration of 7.5 μM. The plates were incubated for 2 hrs at 37° C. and then read immediately for 30 seconds with Viewlux Imager (PerkinElmer) using a luminescence program. To assess cytotoxicity of compounds, CC50 values were generated by multiplexing the EnduRen-containing plates with Cell Titer-Blue (Promega, cat # G8082). Cell-Titer Blue (3 μL) was added to each well and incubated for 8 hrs at 37° C. The fluorescence signal from each well was read, with an excitation wavelength at 525/10 nm and an emission wavelength of 598/10 nm, using the Viewlux Imager.
(§2) The EC50 values for compounds were calculated by using a four-parameter logistic equation: y=A+((B−A)/(1+((C/x)^D))), where A and B denotes minimal and maximal % inhibition, respectively, C is the EC50, D is the hill slope and x represents compound concentration.

[2] = tested on: HCV genotype 1a (H77 strain) replicon in HUH-7 cells; assay: HCV replicon luciferase reporter assay, genotype 1a; assay type: cell-based; settings: Hepatitis C virus, Huh-7, 72 h, 3 days incubation, read-out: LE_1a (EC50, range)
Source text: An HCV replicon whole cell system was established as described by Lohmann V, Korner F, Koch J, Herian U, Theilmann L, Bartenschlager R., Science 285(5424):110-3 (1999) and modified to introduce a luciferase reporter, as first described by Krieger et al (Krieger N, Lohmann V, and Bartenschlager R, J. Virol. 75(10):4614-4624 (2001)). CDNA encoding a humanized form of the Renilla luciferase gene and a linker sequence fused directly to the 3′-end of the luciferase gene were introduced into the replicon construct using an Asc1 restriction site located in core, directly upstream of the neomycin marker gene. The adaptive mutation at position 1179 (serine to isoleucine) was also introduced (Blight K J, Kolykhalov, A A, Rice, C M, Science 290(5498):1972-1974). A stable cell line constitutively expressing this HCV replicon construct was generated by first linearizing plasmid DNAs with ScaI. RNA transcripts were synthesized in vitro using the T7 MegaScript transcription kit (Ambion, Austin, Tex.) according to manufacturer's directions. In vitro transcripts of the cDNA were transfected into the human hepatoma cell line, HUH-7. […] Resulting cell lines were characterized for positive and negative strand RNA production and protein production over time.
A stable HCV replicon luciferase reporter cell line representing the genotype 1a H77 strain (Yanagi M, Purcell R H, Emerson S U, et al. Transcripts from a single full-length cDNA clone of hepatitis C virus are infectious when directly transfected into the liver of a chimpanzee. Proc Natl Acad Sci USA 1997; 94(16):8738-8743) was generated as described previously for the genotype 1b (Con1) replicon luciferase cell line. The replicon construct was modified by introducing mutations were introduced into the genes encoding the NS3 helicase domain (proline replaced by leucine at position 1496) and NS5A (serine to isoleucine at position 2204) to improve replication in cell culture.
as §1, §2

[3] = HCV genotype 1b replicon luciferase, range class
[4] = HCV genotype 1a replicon luciferase, range class
[5] = HCV genotype 1b replicon luciferase, class symbols
[6] = HCV genotype 1a replicon luciferase, class symbols
[7] = HCV genotype 1b replicon luciferase reporter, range class
[8] = HCV genotype 1a replicon luciferase reporter, range class

Compound	EC50 [1, 5] [nM]	EC50 [2, 6] [nM]	further results
C[C@@H]1CC/C=C\[C@@H]2C[C@@]2(C(=O)NS(=O)(=O)C2CC2)NC(=O)[C@@H]2C[C@@H](Oc3nc4ccccc4c4ccccc34)CN2C(=O)[C@@H](NC(=O)OC(C)(C)C(F)(F)F)[C@H](C)C1 [Compound 5185, 1,1,1-trifluoro-2-methylpropan-2-yl ((2R,6S,7R,9R,13aS,14aR,16aS,Z)-14a-((cyclopropylsulfonyl)carbamoyl)-7,9-dimethyl-5,16-dioxo-2-(phenanthridin-6-yloxy)-1,2,3,5,6,7,8,9,10,11,13a,14,14a,15,16,16a-hexadecahydrocyclopropa[e]pyrrolo[1,2-a][1,4]diazacyclopentadecin-6-yl)carbamate]			EC50 [1, 3]: < 5.46 nM; EC50 [2, 4]: < 5.46 nM
C[C@@H]1CC/C=C\[C@@H]2C[C@@]2(C(=O)NS(=O)(=O)C2CC2)NC(=O)[C@@H]2C[C@@H](Oc3ncc(OC(F)F)c4c(Cl)cccc34)CN2C(=O)[C@@H](NC(=O)OC(C)(C)C(F)(F)F)[C@H](C)C1 [Compound 4031, 1,1,1-trifluoro-2-methylpropan-2-yl (2R,6S,7R,9R,13aS,14aR,16aS,Z)-2-(5-chloro-4-(difluoromethoxy)isoquinolin-1-yloxy)-14a-(cyclopropylsulfonylcarbamoyl)-7,9-dimethyl-5,16-dioxo-1,2,3,5,6,7,8,9,10,11,13a,14,14a,15,16,16a-hexadecahydrocyclopropa[e]pyrrolo[1,2-a][1,4]diazacyclopentadecin-6-ylcarbamate]	< 5.46	< 5.46	
CCOc1ccc2c(O[C@@H]3C[C@H]4C(=O)N[C@]5(C(=O)NS(=O)(=O)C6(C)CC6)C[C@H]5/C=C\CC[C@H](C)C[C@@H](C)[C@H](NC(=O)O[C@@H]5C[C@@H]6C[C@@H]6C5)C(=O)N4C3)nccc2c1 [Compound 5137, (1R,3r,5S)-bicyclo[3.1.0]hexan-3-yl ((2R,6S,7R,9S,13aS,14aR,16aS,Z)-2-((6-ethoxyisoquinolin-1-yl)oxy)-7,9-dimethyl-14a-(((1-methylcyclopropyl)sulfonyl)carbamoyl)-5,16-dioxo-1,2,3,5,6,7,8,9,10,11,13a,14,14a,15,16,16a-hexadecahydrocyclopropa[e]pyrrolo[1,2-a][1,4]diazacyclopentadecin-6-yl)carbamate]	< 5.46	< 5.46	
CCOc1ccc2c(O[C@@H]3C[C@H]4C(=O)N[C@]5(C(=O)NS(=O)(=O)C6CC6)C[C@H]5/C=C\CC[C@@H](C)C[C@@H](C)[C@H](NC(=O)OC(C)(C)C(F)(F)F)C(=O)N4C3)nccc2c1 [Compound 5130, 1,1,1-trifluoro-2-methylpropan-2-yl ((2R,6S,7R,9R,13aS,14aR,16aS,Z)-14a-((cyclopropylsulfonyl)carbamoyl)-2-((6-ethoxyisoquinolin-1-yl)oxy)-7,9-dimethyl-5,16-dioxo-1,2,3,5,6,7,8,9,10,11,13a,14,14a,15,16,16a-hexadecahydrocyclopropa[e]pyrrolo[1,2-a][1,4]diazacyclopentadecin-6-yl)carbamate]	< 5.46	< 5.46	
CCOc1ccc2c(O[C@@H]3C[C@H]4C(=O)N[C@]5(C(=O)NS(=O)(=O)C6(C)CC6)C[C@H]5/C=C\CC[C@@H](C)C[C@@H](C)[C@H](NC(=O)OC(C)(C)C(F)(F)F)C(=O)N4C3)nccc2c1 [Compound 5136, 1,1,1-trifluoro-2-methylpropan-2-yl ((2R,6S,7R,9R,13aS,14aR,16aS,Z)-2-((6-ethoxyisoquinolin-1-yl)oxy)-7,9-dimethyl-14a-(((1-methylcyclopropyl)sulfonyl)carbamoyl)-5,16-dioxo-1,2,3,5,6,7,8,9,10,11,13a,14,14a,15,16,16a-hexadecahydrocyclopropa[e]pyrrolo[1,2-a][1,4]diazacyclopentadecin-6-yl)carbamate]	< 5.46	< 5.46	
COc1ccc2c(O[C@@H]3C[C@H]4C(=O)N[C@]5(C(=O)NS(=O)(=O)C6(C)CC6)C[C@H]5/C=C\CC[C@@H](C)C[C@@H](C)[C@H](NC(=O)OC(C)(C)C(F)(F)F)C(=O)N4C3)nc(N(C)C)cc2c1 [Compound 3117, 1,1,1-trifluoro-2-methylpropan-2-yl ((2R,6S,7R,9R,13aS,14aR,16aS,Z)-2-((3-(dimethylamino)-6-methoxyisoquinolin-1-yl)oxy)-7,9-dimethyl-14a-(((1-methylcyclopropyl)sulfonyl)carbamoyl)-5,16-dioxo-1,2,3,5,6,7,8,9,10,11,13a,14,14a,15,16,16a-hexadecahydrocyclopropa[e]pyrrolo[1,2-a][1,4]diazacyclopentadecin-6-yl)carbamate]			EC50 [1, 7]: < 5.46 nM; EC50 [2, 8]: < 5.46 nM
COc1ccc2c(O[C@@H]3C[C@H]4C(=O)N[C@]5(C(=O)NS(=O)(=O)C6(C)CC6)C[C@H]5/C=C\CC[C@H](C)C[C@@H](C)[C@H](NC(=O)OC(C)(C)C(F)(F)F)C(=O)N4C3)nc(N(C)C)cc2c1 [Compound 3116, 1,1,1-trifluoro-2-methylpropan-2-yl ((2R,6S,7R,9S,13aS,14aR,16aS,Z)-2-((3-(dimethylamino)-6-methoxyisoquinolin-1-yl)oxy)-7,9-dimethyl-14a-(((1-methylcyclopropyl)sulfonyl)carbamoyl)-5,16-dioxo-1,2,3,5,6,7,8,9,10,11,13a,14,14a,15,16,16a-hexadecahydrocyclopropa[e]pyrrolo[1,2-a][1,4]diazacyclopentadecin-6-yl)carbamate]			EC50 [1, 7]: < 5.46 nM; EC50 [2, 8]: 4.82 to 103 nM
COc1ccc2c(O[C@@H]3C[C@H]4C(=O)N[C@]5(C(=O)NS(=O)(=O)C6CC6)C[C@H]5/C=C\CC[C@H](C)C[C@@H](C)[C@H](NC(=O)O[C@@H]5C[C@@H]6C[C@@H]6C5)C(=O)N4C3)nc(-c3ccc(N4CCOCC4)cc3)cc2c1 [Compound 5194, (1R,3r,5S)-bicyclo[3.1.0]hexan-3-yl ((2R,6S,7R,9S,13aS,14aR,16aS,Z)-14a-((cyclopropylsulfonyl)carbamoyl)-2-((6-methoxy-3-(4-morpholinophenyl)isoquinolin-1-yl)oxy)-7,9-dimethyl-5,16-dioxo-1,2,3,5,6,7,8,9,10,11,13a,14,14a,15,16,16a-hexadecahydrocyclopropa[e]pyrrolo[1,2-a][1,4]diazacyclopentadecin-6-yl)carbamate]			EC50 [1, 3]: < 5.46 nM; EC50 [2, 4]: < 5.46 nM
